{
  "source": "patent US20240390871A1",
  "about": "“Production of encapsulated nanoparticles at high volume fractions” (iCeutica Pty Ltd., priority 2009, published 2024)",
  "origin": "cited, not measured here",
  "conditions": "previous animal studies; reducing the size of metaxalone",
  "data": [
    {"molecule": "Cc1cc(C)cc(OCC2CNC(=O)O2)c1", "note": "(stereo not shown) [metaxalone]", "values": [
      {"measurement": "rates of absorption and overall bioavailability (as measured by AUC)", "value": "much higher rates of absorption and overall bioavailability"}
    ]}
  ]
}
